Reference: article PMC3625590, “NBM-T-L-BMX-OS01, Semisynthesized from Osthole, Is a Novel Inhibitor of Histone Deacetylase and Enhances Learning and Memory in Rats” (Evidence-based Complementary and Alternative Medicine : eCAM, 2013)

How the values were obtained:
CREB = CREB phosphorylation at Ser133 in hippocampal cultured neurons; assay type: cell-based, Sprague-Dawley rats
Protocol: (§1) The primary hippocampal culture was prepared as described previously. To culture embryonic hippocampal primary neurons, pregnant Sprague-Dawley rats were purchased from the National Laboratory Center in Taiwan. The hippocampal tissue from the embryos of the Sprague-Dawley rats (E19) was dissociated with 100 U/mL of papain (Sigma-Aldrich) and plated onto poly-L-lysine-coated coverslips at a density of 1 × 10^4 cells/cm^2 with a minimal essential medium containing 5% calf serum, 5% horse serum, and 50 ng/mL insulin-transferrin-selenite (Sigma-Aldrich). Three hours after plating, the medium was replaced with 2% of a B27-neurobasal medium (Invitrogen, Carlsbad, CA, USA) containing 0.5 mM glutamine and 12.5 μM glutamate.
The hippocampus tissue and primary hippocampal cells were lysed and sonicated in an RIPA buffer (50 mM Tris-HCl (pH 7.4), 150 mM NaCl, 2 mM EDTA, 1% IGEPAL CA-630, 1 mM phenylmethylsulfonyl fluoride (PMSF), 20 μg/mL pepstatin A, 20 μg/mL leupeptin, 20 μg/mL aprotinin, 50 mM NaF, and 1 mM Na3VO4). The protocol was performed as described previously. The lysate was resolved by 8% SDS-PAGE. […] The protein bands were quantified using the NIH Image J Software.

[1] = test system: primary hippocampal neurons; assay: MTT cell survival assay; assay type: cell-based, Sprague-Dawley rats; conditions: 1, 2.5, 5 and 10 μM, DIV 5, 24 h
Protocol: as §1
Cell viability was evaluated by an MTT (3-(4,5-dimethylthiazol-2-yl)-2,5-diphenyl tetrazolium bromide, Sigma-Aldrich) assay 24 h after SAHA and BMX treatment at concentrations of 0, 1, 2.5, 5, and 10 μM. The protocol was performed as described previously. Cells were incubated with an MTT (0.5 mg/mL) reagent (Sigma-Aldrich) at 37°C for 1 h. The MTT solution was removed, and DMSO was added to the wells shaken at room temperature for 1 h. The amount of MTT formazan product was quantified by measuring its absorbance at 570 and 630 nm by using an ELISA plate reader (SpectraMax M2 Microplate Readers, Molecular Devices, Sunnyvale, CA, USA).

HDAC8 = HDAC8 activity assay (Fluor-de-Lys) in brain nuclear extracts after behavioural tests; assay type: in vivo, Sprague-Dawley rats; conditions: 5 mg/kg/d i.p., compared with trained-control animals
Protocol: For the HDAC8 activity assay, the deacetylase activity of HDAC8 was measured using the commercially available Fluor-de-Lys-HDAC8 deacetylase substrate (Enzo, New York, NY, USA) according to the manufacturer instructions. […] The homogenate was centrifuged at 1000 ×g for 10 min to obtain the nuclei pellet. […] To determine the HDAC activity, 10 μg of nuclear extracts was incubated with a specific substrate (100 μM) for 30 min at 37°C, followed by the addition of a developer solution for 30 min at 37°C. […] Data were normalized to swimming control, footshock control, and nontrained-control animals.

## O=C(CCCCCCC(=O)Nc1ccccc1)NO [SAHA, suberoylanilide hydroxamic acid, reference compound]
CREB
  CREB phosphorylation at Ser133: increased CREB phosphorylation at Ser133
[1]
  survival rate of primary hippocampal neurons (MTT): reduced the survival rate of the hippocampal neurons at concentrations of 2.5, 5, and 10 μM
HDAC8; 7 days after footshock
  HDAC8 activity in amygdala: did not have increased HDAC8 activity
HDAC8; after novel object recognition task
  HDAC8 activity in hippocampus: did not have further increased HDAC8 activity
HDAC8; after water-maze probe trial
  HDAC8 activity in hippocampus: did not increase HDAC8 activity
